Like-named read-outs stand apart in the source and are kept apart here.
Columns and labels:
[1] = pH 6
[2] = SNAC solubility vs SNAC control, hydrotrope 200 mg/mL, pH 6
[3] = hydrotrope 200 mg/mL in water, pH 6, room temperature, 4 hours incubation

SMILES	Fold increase in solubility [2]	SNAC concentration [3]	effect on SNAC solubility (FIG. 1) [1]	Fold increase in solubility (pH 6)	SNAC concentration (pH 6)
O=C(O[C@@H]1Cc2c(O)cc(O)cc2O[C@@H]1c1cc(O)c(O)c(O)c1)c1cc(O)c(O)c(O)c1 [Epigallocatechin gallate]	9.6	5.66 mg/mL	–	–	–
CCN(CC)C(=O)c1cccnc1 [N,N diethyl nicotinamide]	7.8	4.58 mg/mL	–	–	–
O=C([O-])c1ccccc1O.[Na+] [Sodium salicylate]	–	–	–	2.7	1.59 mg/mL

The next lines start with results.

Fold increase in solubility [2]	SNAC concentration [3]	effect on SNAC solubility (FIG. 1) [1]	SMILES	Fold increase in solubility (pH 6)	SNAC concentration (pH 6)
38	22.46 mg/mL	–	CN(C)C(=O)c1ccccc1 [N,N dimethyl benzamide]	–	–
1.3	0.77 mg/mL	–	NC(N)=O [Urea]	–	–
–	–	dose dependent effect	NC(=O)c1cccnc1 [Nicotinamide]	–	–
